Data reported in patent US20260174797A1, “MAGNESIUM AND TRACE ELEMENT OXIDE PREMIX FOR ANIMAL NUTRITIONAL SUPPLEMENTATION, AND MANUFACTURING METHOD” (TIMAB MAGNESIUM, priority 2022, published 2026).
Marks after values point to notes of the source that are not given here.

Tests used:
Caco2 cells = conditions: Caco-2
[1] = In vivo piglet test: growth performance (weight gain, feed consumption) D0 to D42 post-weaning; design: species or system piglets (Danbred×Duroc); conditions: for Daily weight gain: Overall period D0 to D42
Method: The effect of the premix of the invention on the performance and health of piglets in the post-weaning pre-starter stage (0-14 days post-weaning) was evaluated and compared to a standard oxide.
The use of the product of the invention ZnO—MgO was compared with standard zinc oxide at nutritional dose as well as at pharmacological dose in the contents indicated in Table 3.
Piglet weight was measured from D0 to D42 post-weaning in order to record daily weight gain and total weight at the end of the test. Feed consumption of each animal was also recorded each day of the test and recorded as an average to assess the feed conversion ratio (FCR). The FCR corresponds to the conversion index CI. It is equal to the average daily consumption reported to the average daily weight gain. The mean values+/−the standard deviation are presented per treatment.

[2] = in vivo
Text: Each piglet is tagged, weighed and allocated in groups of 8 piglets per pen.
Analyses of the faeces after 14 days of use of the different treatments allowed to assess the amount of zinc not used by the animal and thus released into the soil, contributing to pollution.

[3] = Control Negative: ZnO 150 ppm additive (120 ppm zinc)
[4] = Control Positive: ZnO 3261 ppm additive (2620 ppm zinc)
[5] = Pre-starter phase D0 to D14, Control Negative: ZnO 150 ppm additive (120 ppm zinc)
[6] = Pre-starter phase D0 to D14, Control Positive: ZnO 3261 ppm additive (2620 ppm zinc)

| Compound | Total Zn absorbed on cell (Caco2 cells) [mg/L] | Live weight Day 0 [1, 3] [kg] | Live weight Day 14 [1, 3] | Live weight Day 42 [1, 3] | Live weight Day 0 [1, 4] [kg] | Live weight Day 14 [1, 4] | Live weight Day 42 [1, 4] | Daily weight gain [1, 3] | Daily weight gain [1, 4] | Average daily feed consumption [1, 5] [kg/day] | Average daily weight gain [1, 5] | Feed conversion ratio [1, 5] | Average daily feed consumption [1, 6] [kg/day] | Average daily weight gain [1, 6] | Feed conversion ratio [1, 6] | Average daily weight gain ([1]; Starter phase D15 to D42, Control Negative: ZnO 150 ppm additive (120 ppm zinc)) | Average daily weight gain ([1]; Starter phase D15 to D42, Control Positive: ZnO 3261 ppm additive (2620 ppm zinc)) | zinc content measured in the feces [2] [ppm] |
| --- | --- | --- | --- | --- | --- | --- | --- | --- | --- | --- | --- | --- | --- | --- | --- | --- | --- | --- |
| ZnO—MgO [Premix of the invention MgO—ZnO] | 1.89 | – | – | – | – | – | – | – | – | – | – | – | – | – | – | – | – | – |
| [O]=[Zn] [Control, ZnO] | – | 6.75 | 9.61^b kg | 26.15^ab kg | 6.74 | 10.01^ab kg | 25.33^b kg | 0.463^ab kg/day | 0.444^b kg/day | 0.380 | 0.205^b kg/day | 1.863^a kg/kg | 0.395 | 0.233^ab kg/day | 1.705^b kg/kg | 0.611^ab kg/day | 0.571^b kg/day | 925 |
